The values below come from patent US9994614B2, “N-methyl-D-aspartate receptor modulators and methods of making and using same” (Naurex, Inc., priority 2014, dated 2018).

Non-standard residues stand in square brackets, D forms with d. Residues, ends and D or L forms follow the SMILES beside them. Hyp = O=C(O)[C@@H]1C[C@@H](O)CN1

Format in all cases: biochemical
One test has as its target T1, NR2A (Rattus norvegicus, UniProt Q00959).
T1 construct: corresponding to 200 μg of rat cortical membrane extract protein in each reaction; from tissue; host or cells: rat telencephalon (frontal cortex and hippocampus), male Sprague-Dawley
Kind of test: [3H]MK-801 potentiation assay, NR2A. As for the experimental part:
Briefly, tissue that had been stored at −80° C. was homogenized in ice cold 10 mM Tris (pH7.4 at 4° C.) using a Brinkman Polytron and then pelleted by centrifugation at 51,500 g for 20 min. The resulting supernatant was discarded and the membranes were homogenized and washed an additional 3×. Pellets were then resuspended in 5 mM EDTA/15 mM Tris (pH7.4) and incubated for 1 hr at 37° C. The membrane suspensions were then pelleted by centrifugation at 51,500 g for 20 min and stored at −80° C. overnight. The pellets were resuspended in 10 mM Tris HCl (pH7.4 at 4° C.) and homogenized and washed an additional 7 times and frozen at […] until assay.
Briefly, 300 μg of membrane extract protein were preincubated for 15 minutes at 25° C. in the presence of a saturating concentration of glutamate (50 μM) and varying concentrations of GLYX-13. […] Zero levels were determined in the absence of any glycine ligand in the presence of 30 μM dichlorokyneurenic acid. […]
The origin of aberrantly high background glycine, or bioactive plastic leachates that act like glycine, can stemrom either the water itself, the LC/MS grade water filter used, or a result of time-dependent leaching from plasticware (including storage tubes, beakers, pipette tips). […] Absolute background percentages are calculated. […]
Samples must wait at least 3 hours prior to quantitation in the scintillation counter. […]

A further test deals with T2, NR2D (Rattus norvegicus, UniProt Q62645).
T2 construct: corresponding to 200 μg of rat cortical membrane extract protein in each reaction; from tissue; host or cells: rat telencephalon (frontal cortex and hippocampus), male Sprague-Dawley
The test can be described thus: [3H]MK-801 potentiation assay, NR2D. The note with it: for NR2D Activity % max glycine: relative to stimulation by 1 mM glycine and 50 μM glutamate.

The next test deals with T3, NR2B (Rattus norvegicus, UniProt Q00960).
T3 construct: corresponding to 200 μg of rat cortical membrane extract protein in each reaction; from tissue; host or cells: rat telencephalon (frontal cortex and hippocampus), male Sprague-Dawley
The test can be described thus: [3H]MK-801 potentiation assay, NR2B. As for the experimental part:
Crude synaptic membranes were prepared using rat telencephalon (frontal cortex and hippocampus tissue) from male Sprague-Dawley rats and extensively washed using procedures modified from the Moskal et al. 2001 Review; The use of antibody engineering to create novel drugs that target N-methyl-D-aspartate receptors, Current Drug Targets, 2(3):331-45. Briefly, tissue that had been stored at −80° C. was homogenized in ice cold 10 mM Tris (pH7.4 at 4° C.) using a Brinkman Polytron and then pelleted by centrifugation at 51,500 g for 20 min. The resulting supernatant was discarded and the membranes were homogenized and washed an additional 3×. […]
Functional glycine site agonist effects were measured using an a [^3H]MK-801 potentiation assay (see Urwyler S, Floersheim P, Roy B L, Koller M. J Med Chem. (2009) 52(16):5093-107). […] Zero levels were determined in the absence of any glycine ligand in the presence of 30 μM dichlorokyneurenic acid. The % maximal [^3H]MK-801 binding was calculated relative to stimulation measured in the presence of 1 mM glycine and 50 μM glutamate. […]
For compounds with relatively low activity (e.g., GLYX-13), the identification and elimination of background glycine levels can have a significant effect on the interpretation of this assay. […] Absolute background percentages are calculated. […]

The target of test [1] is T4, NR2C (Rattus norvegicus, UniProt Q00961).
T4 construct: corresponding to 200 μg of rat cortical membrane extract protein in each reaction; from tissue; host or cells: rat telencephalon (frontal cortex and hippocampus), male Sprague-Dawley
The test can be described thus: [3H]MK-801 potentiation assay, NR2C. The note with it: relative to stimulation by 1 mM glycine and 50 μM glutamate.

The target in test [2] is T5, NR2C (Rattus norvegicus, UniProt P35439+Q00961).
T5 construct: corresponding to 200 μg of rat cortical membrane extract protein in each reaction; from tissue; host or cells: rat telencephalon (frontal cortex and hippocampus), male Sprague-Dawley
Kind of test: [3H]MK-801 potentiation assay, NR2C. Conditions: in presence of 50 μM glutamate; read-out: NR2C Potency logM (converted).

Where [3] appears, read: relative to stimulation by 1 mM glycine and 50 μM glutamate.

T2 sequence (Q62645 28-1323, other chains not shown): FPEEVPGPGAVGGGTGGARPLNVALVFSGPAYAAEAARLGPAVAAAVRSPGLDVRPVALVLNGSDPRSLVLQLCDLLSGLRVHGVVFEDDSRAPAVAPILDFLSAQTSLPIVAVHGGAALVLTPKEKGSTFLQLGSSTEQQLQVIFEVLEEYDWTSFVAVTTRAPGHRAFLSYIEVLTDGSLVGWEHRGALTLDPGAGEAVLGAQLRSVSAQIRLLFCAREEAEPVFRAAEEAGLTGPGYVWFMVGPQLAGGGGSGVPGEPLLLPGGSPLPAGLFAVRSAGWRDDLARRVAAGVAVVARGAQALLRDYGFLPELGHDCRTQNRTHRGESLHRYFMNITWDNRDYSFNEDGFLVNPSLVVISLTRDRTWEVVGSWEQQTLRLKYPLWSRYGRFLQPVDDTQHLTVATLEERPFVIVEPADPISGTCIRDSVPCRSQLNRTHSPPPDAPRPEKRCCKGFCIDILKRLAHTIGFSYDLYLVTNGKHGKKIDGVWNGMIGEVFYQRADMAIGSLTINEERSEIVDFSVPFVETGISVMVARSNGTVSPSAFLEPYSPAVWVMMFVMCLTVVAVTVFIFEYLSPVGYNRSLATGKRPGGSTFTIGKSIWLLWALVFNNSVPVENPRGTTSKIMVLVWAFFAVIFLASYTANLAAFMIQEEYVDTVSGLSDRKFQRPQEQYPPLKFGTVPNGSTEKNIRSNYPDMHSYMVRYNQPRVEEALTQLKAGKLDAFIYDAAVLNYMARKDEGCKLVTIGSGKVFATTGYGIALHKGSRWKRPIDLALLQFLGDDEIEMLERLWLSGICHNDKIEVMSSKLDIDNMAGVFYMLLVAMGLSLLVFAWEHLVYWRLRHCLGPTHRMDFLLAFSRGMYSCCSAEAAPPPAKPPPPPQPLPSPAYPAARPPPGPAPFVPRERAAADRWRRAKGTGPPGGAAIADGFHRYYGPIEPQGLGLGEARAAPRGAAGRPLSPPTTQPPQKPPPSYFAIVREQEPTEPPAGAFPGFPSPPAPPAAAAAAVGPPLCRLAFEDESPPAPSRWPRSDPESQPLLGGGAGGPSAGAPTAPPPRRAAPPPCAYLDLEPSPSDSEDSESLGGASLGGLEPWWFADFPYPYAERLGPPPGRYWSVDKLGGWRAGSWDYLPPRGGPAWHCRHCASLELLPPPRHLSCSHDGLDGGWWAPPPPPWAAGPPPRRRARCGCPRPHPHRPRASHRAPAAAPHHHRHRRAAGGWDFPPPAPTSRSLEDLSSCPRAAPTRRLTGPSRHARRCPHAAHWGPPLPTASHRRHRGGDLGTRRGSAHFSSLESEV
T3 sequence (Q00960 27-1482, other chains not shown): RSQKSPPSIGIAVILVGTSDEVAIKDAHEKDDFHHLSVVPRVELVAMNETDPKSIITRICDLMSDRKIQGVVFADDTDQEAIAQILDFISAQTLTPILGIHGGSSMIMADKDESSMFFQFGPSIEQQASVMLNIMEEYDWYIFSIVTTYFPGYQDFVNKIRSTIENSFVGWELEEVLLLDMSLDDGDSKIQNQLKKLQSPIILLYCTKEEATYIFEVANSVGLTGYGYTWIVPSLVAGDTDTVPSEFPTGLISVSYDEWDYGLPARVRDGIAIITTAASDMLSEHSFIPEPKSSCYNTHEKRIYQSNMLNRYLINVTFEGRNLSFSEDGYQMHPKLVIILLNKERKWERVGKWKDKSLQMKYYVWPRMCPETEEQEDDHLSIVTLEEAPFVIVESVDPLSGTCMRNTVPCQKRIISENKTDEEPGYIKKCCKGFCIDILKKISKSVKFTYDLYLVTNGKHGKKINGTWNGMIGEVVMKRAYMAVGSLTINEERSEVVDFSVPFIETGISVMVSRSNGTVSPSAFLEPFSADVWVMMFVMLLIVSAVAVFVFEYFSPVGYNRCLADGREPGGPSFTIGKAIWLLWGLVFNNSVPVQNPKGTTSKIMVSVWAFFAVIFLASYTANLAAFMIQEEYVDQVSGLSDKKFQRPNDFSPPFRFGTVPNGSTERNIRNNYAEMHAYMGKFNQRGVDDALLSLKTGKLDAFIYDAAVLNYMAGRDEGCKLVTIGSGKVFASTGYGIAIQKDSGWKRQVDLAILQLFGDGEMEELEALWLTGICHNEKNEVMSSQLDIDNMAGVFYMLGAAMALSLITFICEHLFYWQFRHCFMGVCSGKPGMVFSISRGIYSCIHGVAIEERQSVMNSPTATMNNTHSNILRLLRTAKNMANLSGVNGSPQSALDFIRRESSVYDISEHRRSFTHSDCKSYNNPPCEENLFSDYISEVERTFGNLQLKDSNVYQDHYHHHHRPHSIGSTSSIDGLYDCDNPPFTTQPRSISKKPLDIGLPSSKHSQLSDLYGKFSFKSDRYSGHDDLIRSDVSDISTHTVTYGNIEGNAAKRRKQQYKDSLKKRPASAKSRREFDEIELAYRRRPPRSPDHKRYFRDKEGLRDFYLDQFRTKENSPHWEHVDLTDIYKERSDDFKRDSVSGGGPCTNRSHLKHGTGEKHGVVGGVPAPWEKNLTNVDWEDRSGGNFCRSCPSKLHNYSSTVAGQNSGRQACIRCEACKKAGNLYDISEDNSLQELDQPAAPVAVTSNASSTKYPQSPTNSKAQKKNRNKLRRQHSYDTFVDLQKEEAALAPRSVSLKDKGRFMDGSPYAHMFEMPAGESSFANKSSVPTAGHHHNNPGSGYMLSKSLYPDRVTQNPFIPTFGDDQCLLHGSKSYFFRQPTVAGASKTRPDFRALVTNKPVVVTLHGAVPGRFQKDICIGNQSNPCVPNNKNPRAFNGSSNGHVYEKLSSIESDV
T1 sequence (Q00959 23-1464, other chains not shown): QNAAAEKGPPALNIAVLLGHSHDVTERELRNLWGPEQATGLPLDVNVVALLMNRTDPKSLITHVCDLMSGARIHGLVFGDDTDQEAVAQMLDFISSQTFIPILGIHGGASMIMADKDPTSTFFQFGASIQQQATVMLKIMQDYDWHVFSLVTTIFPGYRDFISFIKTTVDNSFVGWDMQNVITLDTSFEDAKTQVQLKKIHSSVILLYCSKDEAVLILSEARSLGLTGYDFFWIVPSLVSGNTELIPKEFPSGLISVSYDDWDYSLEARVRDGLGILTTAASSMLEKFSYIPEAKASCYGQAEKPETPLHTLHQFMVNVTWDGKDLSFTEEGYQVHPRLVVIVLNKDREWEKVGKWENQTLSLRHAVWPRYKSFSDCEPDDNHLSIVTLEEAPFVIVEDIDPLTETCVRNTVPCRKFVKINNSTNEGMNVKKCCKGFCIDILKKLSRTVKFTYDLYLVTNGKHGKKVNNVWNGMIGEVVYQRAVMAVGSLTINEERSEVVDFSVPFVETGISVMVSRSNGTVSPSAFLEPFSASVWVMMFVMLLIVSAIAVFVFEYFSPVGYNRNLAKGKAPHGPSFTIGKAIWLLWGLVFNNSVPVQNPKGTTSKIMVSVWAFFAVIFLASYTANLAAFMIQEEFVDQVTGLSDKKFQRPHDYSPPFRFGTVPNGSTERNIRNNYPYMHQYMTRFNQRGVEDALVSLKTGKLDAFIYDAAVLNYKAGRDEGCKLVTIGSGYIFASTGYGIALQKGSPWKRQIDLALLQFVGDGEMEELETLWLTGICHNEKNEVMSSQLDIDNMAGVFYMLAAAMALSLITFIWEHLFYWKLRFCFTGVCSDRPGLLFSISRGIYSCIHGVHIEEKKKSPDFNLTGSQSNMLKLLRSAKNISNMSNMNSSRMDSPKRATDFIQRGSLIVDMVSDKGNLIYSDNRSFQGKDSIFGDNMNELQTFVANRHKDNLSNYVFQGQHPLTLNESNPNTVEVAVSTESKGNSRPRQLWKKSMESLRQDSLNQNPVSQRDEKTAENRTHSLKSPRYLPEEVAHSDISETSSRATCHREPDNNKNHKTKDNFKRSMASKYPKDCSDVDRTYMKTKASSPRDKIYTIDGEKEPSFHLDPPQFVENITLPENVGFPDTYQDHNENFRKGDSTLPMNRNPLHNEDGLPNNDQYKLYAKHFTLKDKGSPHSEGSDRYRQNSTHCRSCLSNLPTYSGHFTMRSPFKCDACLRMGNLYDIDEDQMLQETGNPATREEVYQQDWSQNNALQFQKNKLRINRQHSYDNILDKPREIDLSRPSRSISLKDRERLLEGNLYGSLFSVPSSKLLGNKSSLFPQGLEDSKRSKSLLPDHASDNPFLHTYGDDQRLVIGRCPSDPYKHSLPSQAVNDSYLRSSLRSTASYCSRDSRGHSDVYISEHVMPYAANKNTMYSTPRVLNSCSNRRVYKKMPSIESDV

`CC(=O)OC1C[C@@H](C(=O)N[C@@H](Cc2c[nH]c3ccccc23)C(=O)N[C@H](C(N)=O)[C@@H](C)O)N(C(=O)[C@@H](N)[C@@H](C)O)C1` (stereo partly shown) [Compound A-3]: the EC50 at NR2A (in presence of 50 μM glutamate, read-out: NR2A Potency logM (converted)) was 17.4 pM. Besides, the “NR2A Activity % max glycine” value on NR2A (setting [3]) is reported as 58.25 % max glycine. Also, the “NR2D Potency logM” value on NR2D (in presence of 50 μM glutamate) is reported as −13.68 logM. In addition, at NR2D, the “NR2D Activity % max glycine” value is listed as 35.17 % max glycine.

On to `C[C@@H](O)[C@H](NC(=O)[C@H](Cc1c[nH]c2ccccc12)NC(=O)[C@@H]1C[C@@H](O)CN1)C(N)=O` [Compound A-5] (H-[Hyp]-Trp-Thr-NH2), for which the “NR2B Potency logM” value on NR2B (in presence of 50 μM glutamate) is −13.86 logM. The “NR2B Activity % max glycine” value at NR2B (setting [3]) amounted to 29.53 % max glycine. Also, the “NR2C Activity % max glycine” value at NR2C [1] is on record as 38.75 % max glycine. Moreover, the EC50 is 2.09 pM at NR2C [2] and 2.34 pM at NR2D (in presence of 50 μM glutamate, read-out: NR2D Potency logM (converted)). The “NR2D Activity % max glycine” value at NR2D was determined as 41.34 % max glycine.
